Measured values: the CheMixHub viscosity set
Where “and” joins values, the source holds several entries; their conditions need not be identical. Identical values can stand only once. ± gives the uncertainty stated by the source.

CC=Cc1ccc(O)c(OC)c1
Details | viscosity [mPa·s]
298.15 K, 101 kPa | 26.7 ± 0.32

ClC(Cl)=C(Cl)Cl
Details | viscosity
293.15 K, 101.33 kPa | 0.8 ± 0.015 mPa·s
298 K, 101 kPa | 1.02 ± 0.12 mPa·s
298.15 K, 101 kPa | 0.838 ± 0.022 mPa·s and 0.8486 ± 0.0072 mPa·s and 0.8426 ± 0.0072 mPa·s
298.15 K, 101.33 kPa | 0.846 ± 0.008 mPa·s
303 K, 101 kPa | 0.97 ± 0.12 mPa·s
303.15 K, 101 kPa | 0.7976 ± 0.0065 mPa·s and 0.798 ± 0.007 mPa·s and 0.814 ± 0.007 mPa·s
303.15 K, 101.3 kPa | 0.799 ± 0.013 mPa·s
303.15 K, 101.32 kPa | 0.7976 ± 0.0094 mPa·s
308 K, 101 kPa | 0.92 ± 0.11 mPa·s
313 K, 101 kPa | 0.88 ± 0.11 mPa·s
313.15 K, 101.33 kPa | 0.731 ± 0.02 mPa·s and 0.68 ± 0.013 mPa·s

C1CCC2CCCCC2C1 (stereo not drawn)
viscosity
Details | 293.15 K | 298.15 K | 303.15 K | 308.15 K | 313.15 K | 318.15 K | 323.15 K
100 kPa | 2.507 ± 0.013 mPa·s | 2.272 ± 0.013 mPa·s | 2.07 ± 0.012 mPa·s | – | 1.741 ± 0.012 mPa·s | – | 1.457 ± 0.011 mPa·s
101 kPa | 2.453 ± 0.052 mPa·s | 2.223 ± 0.047 mPa·s and 2.171 ± 0.029 mPa·s | 2.026 ± 0.043 mPa·s | 1.854 ± 0.039 mPa·s | 1.703 ± 0.036 mPa·s | 1.571 ± 0.033 mPa·s | 1.454 ± 0.031 mPa·s

CN(C)C=O
Details | viscosity
293.15 K, 100 kPa | 0.855 ± 0.025 mPa·s
293.15 K, 101.33 kPa | 0.9248 ± 0.03 mPa·s and 0.88 ± 0.13 mPa·s
298.15 K, 100 kPa | 0.82 ± 0.024 mPa·s and 0.843 ± 0.035 mPa·s
298.15 K, 101.3 kPa | 0.792 ± 0.021 mPa·s
298.15 K, 101.33 kPa | 0.83 ± 0.12 mPa·s
302.15 K, 101 kPa | 1.032 ± 0.21 mPa·s
303 K, 101.33 kPa | 0.758 ± 0.016 mPa·s
303.15 K, 101.3 kPa | 0.7675 ± 0.0099 mPa·s and 0.7524 ± 0.02 mPa·s
303.15 K, 101.33 kPa | 0.78 ± 0.12 mPa·s
305.15 K, 101 kPa | 0.979 ± 0.2 mPa·s
308 K, 101.33 kPa | 0.721 ± 0.016 mPa·s
308.15 K, 100 kPa | 0.729 ± 0.021 mPa·s and 0.718 ± 0.016 mPa·s
308.15 K, 101.3 kPa | 0.7077 ± 0.019 mPa·s
308.15 K, 101.33 kPa | 0.74 ± 0.11 mPa·s
313.15 K, 100 kPa | 0.687 ± 0.02 mPa·s and 0.688 ± 0.008 mPa·s
313.15 K, 101.3 kPa | 0.6644 ± 0.018 mPa·s
313.15 K, 101.33 kPa | 0.7143 ± 0.024 mPa·s and 0.7 ± 0.11 mPa·s
318 K, 101.3 kPa | 0.6348 ± 0.024 mPa·s
318 K, 101.33 kPa | 0.6348 ± 0.039 mPa·s
318.15 K, 100 kPa | 0.652 ± 0.019 mPa·s
318.15 K, 101.33 kPa | 0.67 ± 0.1 mPa·s
323.15 K, 101.33 kPa | 0.63 ± 0.09 mPa·s

CCOCCOCCO
101 kPa
Details | viscosity
293.15 K | 4.291 ± 0.079 mPa·s and 3.626 ± 0.022 mPa·s
298.15 K | 3.799 ± 0.05 mPa·s and 3.686 ± 0.077 mPa·s and 3.278 ± 0.02 mPa·s
303.15 K | 3.186 ± 0.075 mPa·s and 2.862 ± 0.018 mPa·s
308.15 K | 2.839 ± 0.038 mPa·s and 2.859 ± 0.074 mPa·s and 2.507 ± 0.016 mPa·s
313.15 K | 2.511 ± 0.073 mPa·s
318.15 K | 2.358 ± 0.031 mPa·s and 2.269 ± 0.073 mPa·s

c1ccccc1
Details | viscosity
293.15 K, 100 kPa | 0.641 ± 0.03 mPa·s and 0.656 ± 0.033 mPa·s
293.15 K, 101 kPa | 0.644 ± 0.013 mPa·s and 0.629 ± 0.006 mPa·s and 0.646 ± 0.011 mPa·s
293.15 K, 101.33 kPa | 0.645 ± 0.004 mPa·s and 0.645 ± 0.006 mPa·s
293.16 K, 101 kPa | 0.652 ± 0.017 mPa·s
294.35 K, 101.33 kPa | 0.6559 ± 0.0076 mPa·s
298 K, 101 kPa | 0.6139 ± 0.0087 mPa·s
298 K, 101.33 kPa | 0.596 ± 0.008 mPa·s
298.15 K, 100 kPa | 0.6121 ± 0.074 mPa·s
298.15 K, 101.3 kPa | 0.609 ± 0.0056 mPa·s
303.15 K, 101.32 kPa | 0.576 ± 0.004 mPa·s
303.95 K, 101.33 kPa | 0.5989 ± 0.0069 mPa·s
304.85 K, 101.33 kPa | 0.5927 ± 0.0069 mPa·s
307.35 K, 101.33 kPa | 0.53 ± 0.0095 mPa·s
307.4 K, 101.33 kPa | 0.309 ± 0.003 mPa·s
312.95 K, 101.33 kPa | 0.5173 ± 0.006 mPa·s
313 K, 101 kPa | 0.4925 ± 0.0035 mPa·s and 0.4923 ± 0.0035 mPa·s and 0.4923 ± 0.0033 mPa·s
313 K, 101.33 kPa | 0.489 ± 0.007 mPa·s
313.15 K, 100 kPa | 0.491 ± 0.025 mPa·s
313.25 K, 101.33 kPa | 0.5324 ± 0.015 mPa·s
318 K, 101 kPa | 0.4788 ± 0.0071 mPa·s
318 K, 101.3 kPa | 0.4765 ± 0.019 mPa·s
318.15 K, 101.33 kPa | 0.553 ± 0.016 mPa·s and 0.553 ± 0.06 mPa·s
322.75 K, 101.33 kPa | 0.4749 ± 0.0055 mPa·s
322.85 K, 101.33 kPa | 0.4803 ± 0.0055 mPa·s
323.15 K, 100 kPa | 0.435 ± 0.022 mPa·s
323.15 K, 101 kPa | 0.438 ± 0.009 mPa·s and 0.4367 ± 0.0041 mPa·s and 0.434 ± 0.012 mPa·s

CC12CC3CC(C)(C1)CC(C)(C3)C2
100 kPa
Details | viscosity
293.15 K | 2.641 ± 0.11 mPa·s and 2.61 ± 0.11 mPa·s
298.15 K | 2.376 ± 0.097 mPa·s and 2.35 ± 0.1 mPa·s
303.15 K | 2.147 ± 0.087 mPa·s
308.15 K | 1.951 ± 0.079 mPa·s
313.15 K | 1.781 ± 0.072 mPa·s and 1.76 ± 0.07 mPa·s
318.15 K | 1.633 ± 0.066 mPa·s
323.15 K | 1.502 ± 0.061 mPa·s

Cc1ccnc(C)c1
101 kPa
Details | viscosity
303 K | 0.7893 ± 0.0064 mPa·s and 0.7892 ± 0.0064 mPa·s
313 K | 0.6863 ± 0.0056 mPa·s and 0.686 ± 0.0056 mPa·s
323 K | 0.6133 ± 0.0051 mPa·s and 0.6129 ± 0.0051 mPa·s

CCCCCCC
Details | viscosity
293.15 K, 100 kPa | 0.379 ± 0.006 mPa·s
293.15 K, 101 kPa | 0.4002 ± 0.015 mPa·s and 0.408 ± 0.011 mPa·s
293.17 K, 101 kPa | 0.409 ± 0.011 mPa·s
293.2 K, 101.3 kPa | 0.4084 ± 0.0047 mPa·s
296 K, 101.3 kPa | 0.395 ± 0.007 mPa·s and 0.397 ± 0.007 mPa·s
298 K, 101.33 kPa | 0.3899 ± 0.0054 mPa·s
298.15 K, 100 kPa | 0.358 ± 0.006 mPa·s
303 K, 101.33 kPa | 0.374 ± 0.058 mPa·s
303.15 K, 100 kPa | 0.376 ± 0.038 mPa·s and 0.337 ± 0.006 mPa·s
303.15 K, 101.33 kPa | 0.403 ± 0.04 mPa·s and 0.381 ± 0.009 mPa·s
308.15 K, 100 kPa | 0.342 ± 0.034 mPa·s and 0.318 ± 0.006 mPa·s
308.15 K, 101.33 kPa | 0.363 ± 0.008 mPa·s
313.15 K, 100 kPa | 0.301 ± 0.006 mPa·s and 0.34 ± 0.005 mPa·s
313.15 K, 101 kPa | 0.331 ± 0.02 mPa·s and 0.332 ± 0.009 mPa·s and 0.3432 ± 0.0076 mPa·s
313.2 K, 101.3 kPa | 0.3447 ± 0.0039 mPa·s
318.15 K, 101 kPa | 0.326 ± 0.004 mPa·s and 0.314 ± 0.02 mPa·s and 0.3269 ± 0.0075 mPa·s
318.15 K, 101.33 kPa | 0.317 ± 0.01 mPa·s
323 K, 101.33 kPa | 0.308 ± 0.05 mPa·s
323.1 K, 101.3 kPa | 0.3182 ± 0.0036 mPa·s
323.15 K, 101 kPa | 0.3039 ± 0.012 mPa·s
